Key:
[1] = system: Cabbage Looper (Trichoplusia ni, TRIPNI) second instar larvae; experiment: Bioassay on Cabbage Looper (CL), 128-well diet tray assay; type: in vivo; conditions: for mortality at 0.05 µg/cm2: 0.05 μg/cm^2 on artificial diet; for mortality at 0.05 µg/cm2 / mortality at 0.5 µg/cm2 / mortality at 5 µg/cm2: read-out: Percent control (or mortality) CL; for mortality at 0.5 µg/cm2: 0.5 μg/cm^2 on artificial diet; for mortality at 5 µg/cm2: 5 μg/cm^2 on artificial diet; for pest or weed control at 50 µg/cm2: Cabbage Looper, Table ABC Biological Results, read-out: CL rating
Experimental: (§1) Certain molecules disclosed in this document were tested against BAW, CEW, and CL using procedures described in the following examples. In the reporting of the results, the “BAW, CEW, & CL Rating Table” was used (See Table Section).
Bioassays on CL were conducted using a 128-well diet tray assay. one to five second instar CL larvae were placed in each well (3 mL) of the diet tray that had been previously filled with 1 mL of artificial diet to which 50 μg/cm^2 of the test molecule (dissolved in 50 μL of 90:10 acetone-water mixture) had been applied (to each of eight wells) and then allowed to dry. Trays were covered with a clear self-adhesive cover and held at 25° C., 14:10 light-dark for five to seven days. Percent mortality was recorded for the larvae in each well; activity in the eight wells was then averaged. The results are indicated in the table entitled “Table ABC: Biological Results” (See Table Section).
(§2) Bioassays on BAW and CL were conducted according to the procedures outlined in Example A: Bioassays on Beet Armyworm (“BAW”) and Cabbage Looper (“CL”) using the indicated concentrations.

[2] = system: Beet Armyworm (Spodoptera exigua, LAPHEG) second instar larvae; experiment: Bioassay on Beet Armyworm (BAW), 128-well diet tray assay; type: in vivo; conditions: for mortality at 0.05 µg/cm2: 0.05 μg/cm^2 on artificial diet; for mortality at 0.05 µg/cm2 / mortality at 0.5 µg/cm2 / mortality at 5 µg/cm2: read-out: Percent control (or mortality) BAW; for mortality at 0.5 µg/cm2: 0.5 μg/cm^2 on artificial diet; for mortality at 5 µg/cm2: 5 μg/cm^2 on artificial diet; for pest or weed control at 50 µg/cm2: Beet Armyworm, Table ABC Biological Results, read-out: BAW rating
Experimental: as §1
Bioassays on BAW were conducted using a 128-well diet tray assay. one to five second instar BAW larvae were placed in each well (3 mL) of the diet tray that had been previously filled with 1 mL of artificial diet to which 50 μg/cm^2 of the test molecule (dissolved in 50 μL of 90:10 acetone-water mixture) had been applied (to each of eight wells) and then allowed to dry. Trays were covered with a clear self-adhesive cover and held at 25° C., 14:10 light-dark for five to seven days. Percent mortality was recorded for the larvae in each well; activity in the eight wells was then averaged. The results are indicated in the table entitled “Table ABC: Biological Results” (See Table Section).
as §2

For C[C@H](NC(=O)CCC(F)(F)F)NC(=O)c1ccc(/C(F)=C/C(c2cc(Cl)c(Cl)c(Cl)c2)C(F)(F)F)cc1C(F)(F)F (stereo partly drawn) [F1, 4-((Z)-1,4,4,4-tetrafluoro-3-(3,4,5-trichlorophenyl)but-1-en-1-yl)-N—((R)-1-(4,4,4-trifluorobutanamido)ethyl)-2-(trifluoromethyl)benzamide], the mortality at 0.05 µg/cm2 [1] was 100%, the mortality at 0.5 µg/cm2 [1] was 100% and the mortality at 5 µg/cm2 [1] was 100%. The pest or weed control at 50 µg/cm2 [1] was 50 to 100%, the mortality at 0.05 µg/cm2 [2] was 100% and the mortality at 0.5 µg/cm2 [2] was 100%. It also gave a mortality at 5 µg/cm2 [2] of 100% and a pest or weed control at 50 µg/cm2 [2] of 50 to 100%.

For Cc1cc(/C(F)=C/C(c2cc(Cl)c(Cl)c(Cl)c2)C(F)(F)F)ccc1C(=O)N[C@H](C)NC(=O)CCC(F)(F)F (stereo partly drawn) [F2, 2-Methyl-4-((Z)-1,4,4,4-tetrafluoro-3-(3,4,5-trichlorophenyl)but-1-en-1-yl)-N—((R)-1-(4,4,4-trifluorobutanamido)ethyl)benzamide], the mortality at 0.05 µg/cm2 [1] was 100%, the mortality at 0.5 µg/cm2 [1] was 100% and the mortality at 5 µg/cm2 [1] was 100%. For the same compound, the pest or weed control at 50 µg/cm2 [1] was 50 to 100%, the mortality at 0.05 µg/cm2 [2] was 100% and the mortality at 0.5 µg/cm2 [2] was 100%. It also gave a mortality at 5 µg/cm2 [2] of 100% and a pest or weed control at 50 µg/cm2 [2] of 50 to 100%.

C[C@H](NC(=O)CCC(F)(F)F)NC(=O)c1ccc(/C(F)=C/C(c2cc(Cl)c(Cl)c(Cl)c2)C(F)(F)F)cc1Br (stereo partly drawn) [F3, 2-Bromo-4-((Z)-1,4,4,4-tetrafluoro-3-(3,4,5-trichlorophenyl)but-1-en-1-yl)-N—((R)-1-(4,4,4-trifluorobutanamido)ethyl)benzamide] gave a mortality at 0.05 µg/cm2 [1] of 100%, a mortality at 0.5 µg/cm2 [1] of 100% and a mortality at 5 µg/cm2 [1] of 100%. The pest or weed control at 50 µg/cm2 [1] was 50 to 100%, the mortality at 0.05 µg/cm2 [2] was 100% and the mortality at 0.5 µg/cm2 [2] was 100%. It also gave a mortality at 5 µg/cm2 [2] of 100% and a pest or weed control at 50 µg/cm2 [2] of 50 to 100%.

Compound C[C@H](NC(=O)CC(F)(F)F)NC(=O)c1ccc(/C(F)=C/C(c2cc(Cl)c(Cl)c(Cl)c2)C(F)(F)F)cc1Br (stereo partly drawn) [F4, 2-Bromo-4-((Z)-1,4,4,4-tetrafluoro-3-(3,4,5-trichlorophenyl)but-1-en-1-yl)-N—((R)-1-(3,3,3-trifluoropropanamido)ethyl)benzamide] has a mortality at 0.05 µg/cm2 [1] of 100%, a mortality at 0.5 µg/cm2 [1] of 100% and a mortality at 5 µg/cm2 [1] of 100%. The pest or weed control at 50 µg/cm2 [1] was 50 to 100%, the mortality at 0.05 µg/cm2 [2] was 100% and the mortality at 0.5 µg/cm2 [2] was 100%. For the same compound, the mortality at 5 µg/cm2 [2] was 100% and the pest or weed control at 50 µg/cm2 [2] was 50 to 100%.

C[C@H](NC(=O)CC(F)(F)F)NC(=O)c1ccc(/C(F)=C/C(c2cc(Cl)c(Cl)c(Cl)c2)C(F)(F)F)cc1C(F)(F)F (stereo partly drawn) [F5, 4-((Z)-1,4,4,4-Tetrafluoro-3-(3,4,5-trichlorophenyl)but-1-en-1-yl)-2-(trifluoromethyl)-N—((R)-1-(3,3,3-trifluoropropanamido)ethyl)benzamide] showed a mortality at 0.05 µg/cm2 [1] of 100%, a mortality at 0.5 µg/cm2 [1] of 100% and a mortality at 5 µg/cm2 [1] of 100%. For the same compound, the pest or weed control at 50 µg/cm2 [1] was 50 to 100%, the mortality at 0.05 µg/cm2 [2] was 100% and the mortality at 0.5 µg/cm2 [2] was 100%. For the same compound, the mortality at 5 µg/cm2 [2] was 100% and the pest or weed control at 50 µg/cm2 [2] was 50 to 100%.

Cc1cc(/C(F)=C/C(c2cc(Cl)c(Cl)c(Cl)c2)C(C)(F)F)ccc1C(=O)N[C@H](C)NC(=O)CC(F)(F)F (stereo partly drawn) [F6, 2-Methyl-4-((Z)-1,4,4-trifluoro-3-(3,4,5-trichlorophenyl)pent-1-en-1-yl)-N—((R)-1-(3,3,3-trifluoropropanamido)ethyl)benzamide] gave a pest or weed control at 50 µg/cm2 [1] of 50 to 100% and a pest or weed control at 50 µg/cm2 [2] of 50 to 100%.

In the case of C[C@H](NC(=O)CC(F)(F)F)NC(=O)c1ccc(/C(F)=C/C(c2cc(Cl)c(Cl)c(Cl)c2)C(F)(F)F)cc1Cl (stereo partly drawn) [F7, 2-Chloro-4-((Z)-1,4,4,4-tetrafluoro-3-(3,4,5-trichlorophenyl)but-1-en-1-yl)-N—((R)-1-(3,3,3-trifluoropropanamido)ethyl)benzamide], the mortality at 0.05 µg/cm2 [1] is reported as 100%, the mortality at 0.5 µg/cm2 [1] is reported as 100% and the mortality at 5 µg/cm2 [1] is reported as 100%. It also gave a pest or weed control at 50 µg/cm2 [1] of 50 to 100%, a mortality at 0.05 µg/cm2 [2] of 79% and a mortality at 0.5 µg/cm2 [2] of 100%. For the same compound, the mortality at 5 µg/cm2 [2] was 100% and the pest or weed control at 50 µg/cm2 [2] was 50 to 100%.

Compound C[C@H](NC(=O)CC(F)(F)F)NC(=O)c1ccc(/C(F)=C/C(c2cc(Cl)c(Cl)c(Cl)c2)C(C)(F)F)cc1C(F)(F)F (stereo partly drawn) [F8, 4-((Z)-1,4,4-Trifluoro-3-(3,4,5-trichlorophenyl)pent-1-en-1-yl)-2-(trifluoromethyl)-N—((R)-1-(3,3,3-trifluoropropanamido)ethyl)benzamide] has a pest or weed control at 50 µg/cm2 [1] of 50 to 100% and a pest or weed control at 50 µg/cm2 [2] of 50 to 100%.

Compound C[C@H](NC(=O)CCC(F)(F)F)NC(=O)c1ccc(/C(F)=C/C(c2cc(Cl)c(Cl)c(Cl)c2)C(F)(F)F)cc1Cl (stereo partly drawn) [F9, 2-Chloro-4-((Z)-1,4,4,4-tetrafluoro-3-(3,4,5-trichlorophenyl)but-1-en-1-yl)-N—((R)-1-(4,4,4-trifluorobutanamido)ethyl)benzamide] has a mortality at 0.05 µg/cm2 [1] of 100%, a mortality at 0.5 µg/cm2 [1] of 100% and a mortality at 5 µg/cm2 [1] of 100%. The pest or weed control at 50 µg/cm2 [1] was 50 to 100%, the mortality at 0.05 µg/cm2 [2] was 100% and the mortality at 0.5 µg/cm2 [2] was 100%. For the same compound, the mortality at 5 µg/cm2 [2] was 100% and the pest or weed control at 50 µg/cm2 [2] was 50 to 100%.

C[C@H](NC(=O)CCC(F)(F)F)NC(=O)c1ccc(/C(F)=C/C(c2cc(Cl)c(Cl)c(Cl)c2)C(C)(F)F)cc1C(F)(F)F (stereo partly drawn) [F10, 4-((Z)-1,4,4-Trifluoro-3-(3,4,5-trichlorophenyl)pent-1-en-1-yl)-N—((R)-1-(4,4,4-trifluorobutanamido)ethyl)-2-(trifluoromethyl)benzamide] showed a pest or weed control at 50 µg/cm2 [1] of 50 to 100% and a pest or weed control at 50 µg/cm2 [2] of 50 to 100%.

For CCC(F)(F)C(/C=C(\F)c1ccc(C(=O)N[C@H](C)NC(=O)CC(F)(F)F)c(C(F)(F)F)c1)c1cc(Cl)c(Cl)c(Cl)c1 (stereo partly drawn) [F20, 4-((Z)-1,4,4-Trifluoro-3-(3,4,5-trichlorophenyl)hex-1-en-1-yl)-2-(trifluoromethyl)-N—((R)-1-(3,3,3-trifluoropropanamido)ethyl)benzamide], the pest or weed control at 50 µg/cm2 [1] was 50 to 100% and the pest or weed control at 50 µg/cm2 [2] was 50 to 100%.

In the case of CCC(F)(F)C(/C=C(\F)c1ccc(C(=O)N[C@H](C)NC(=O)CCC(F)(F)F)c(C(F)(F)F)c1)c1cc(Cl)c(Cl)c(Cl)c1 (stereo partly drawn) [F21, 4-((Z)-1,4,4-Trifluoro-3-(3,4,5-trichlorophenyl)hex-1-en-1-yl)-N—((R)-1-(4,4,4-trifluorobutanamido)ethyl)-2-(trifluoromethyl)benzamide], the pest or weed control at 50 µg/cm2 [1] is reported as 50 to 100% and the pest or weed control at 50 µg/cm2 [2] is reported as 50 to 100%.

C[C@@H](NC(=O)c1ccc(/C(F)=C/C(c2cc(Cl)c(Cl)c(Cl)c2)C(F)(F)F)cc1C(F)(F)F)NC(=O)C1CC1 (stereo partly drawn) [F27, N—((R)-1-(cyclopropanecarboxamido)ethyl)-4-((Z)-1,4,4,4-tetrafluoro-3-(3,4,5-trichlorophenyl)but-1-en-1-yl)-2-(trifluoromethyl)benzamide] showed a pest or weed control at 50 µg/cm2 [1] of 50 to 100% and a pest or weed control at 50 µg/cm2 [2] of 50 to 100%.

C[C@@H](NC(=O)c1ccc(/C(F)=C/C(c2cc(Cl)c(Cl)c(Cl)c2)C(F)(F)F)cc1C(F)(F)F)NS(=O)(=O)CC(F)(F)F (stereo partly drawn) [F28, 4-((Z)-1,4,4,4-tetrafluoro-3-(3,4,5-trichlorophenyl)but-1-en-1-yl)-N—((S)-1-(2,2,2-trifluoroethylsulfonamido)ethyl)-2-(trifluoromethyl)benzamide] showed a pest or weed control at 50 µg/cm2 [1] of 50 to 100% and a pest or weed control at 50 µg/cm2 [2] of 50 to 100%.

For C[C@H](NC(=O)NC1CC1)NC(=O)c1ccc(/C(F)=C/C(c2cc(Cl)c(Cl)c(Cl)c2)C(F)(F)F)cc1C(F)(F)F (stereo partly drawn) [F29, N—((S)-1-(3-cyclopropylureido)ethyl)-4-((Z)-1,4,4,4-tetrafluoro-3-(3,4,5-trichlorophenyl)but-1-en-1-yl)-2-(trifluoromethyl)benzamide], the pest or weed control at 50 µg/cm2 [1] was 50 to 100% and the pest or weed control at 50 µg/cm2 [2] was 50 to 100%.

Cc1cc(/C(F)=C/C(c2cc(Cl)c(Cl)c(Cl)c2)C(F)(F)F)ccc1C(=O)N[C@H](C)NC(=O)CC(F)(F)F (stereo partly drawn) [F33, 2-Methyl-4-((Z)-1,4,4,4-tetrafluoro-3-(3,4,5-trichlorophenyl)but-1-en-1-yl)-N—((R)-1-(3,3,3-trifluoropropanamido)ethyl)benzamide] was tested, and the mortality at 0.05 µg/cm2 [1] was 100%, the mortality at 0.5 µg/cm2 [1] was 100% and the mortality at 5 µg/cm2 [1] was 100%. It also gave a pest or weed control at 50 µg/cm2 [1] of 50 to 100%, a mortality at 0.05 µg/cm2 [2] of 88% and a mortality at 0.5 µg/cm2 [2] of 100%. It also gave a mortality at 5 µg/cm2 [2] of 100% and a pest or weed control at 50 µg/cm2 [2] of 50 to 100%.

CCC(=O)N[C@@H](C)NC(=O)c1ccc(/C(F)=C/C(c2cc(Cl)c(Cl)c(Cl)c2)C(F)(F)F)cc1C(F)(F)F (stereo partly drawn) [F34, N—((R)-1-propionamidoethyl)-4-((Z)-1,4,4,4-tetrafluoro-3-(3,4,5-trichlorophenyl)but-1-en-1-yl)-2-(trifluoromethyl)benzamide] was tested, and the pest or weed control at 50 µg/cm2 [1] was 50 to 100% and the pest or weed control at 50 µg/cm2 [2] was 50 to 100%.
